As usually defined, the EC90 is the point of the concentration-response curve where the effect stands at 90%. In general, EC50 refers to the concentration needed to bring the measured effect to its halfway point.

“And” between values parts separate entries of the source, which are not always exact repeats. Equal values may be shown once. Read-outs that look alike come from different tables or passages of the source.

The test system of data set [1] is Hepatitis B virus. Put plainly: Inhibition of HBV replication in transfected HepG-2 (2.2.15) cells (HBV virion DNA and replicative intermediates, blot hybridization). Type of data set: cell-based. As to conditions: for EC90: replicative intermediates (intracellular DNA); for EC90 / EC50: transfected HEPG-2 (2.2.15) cells; for EC50: extracellular DNA. How it is done: The assay used herein to evaluate the ability of the disclosed compounds to inhibit the replication of HBV is described in detail in Korba and Gerin, Antiviral Res. 19: 55-70 (1992). […] The toxicity and anti-HBV activity of (−)-β-L-2-hydroxymethyl-5-(5-fluorocytosin-1-yl)-1,3-oxathiolane ((−)-β-L-FTC) and β-D-2′,3′-dideoxycytidine (β-D-ddC) are included as controls. The other compounds disclosed herein can be evaluated similarly.
The antiviral evaluations were performed on two separate passages of cells, two cultures per passage (4 cultures total). All wells, in all plates, were seeded at the same density and at the same time.
(Korba and Gerin, Antiviral Res. 19: 55-70, 1992). The levels of integrated HBV DNA in each cellular DNA preparation (which remain constant on a per cell basis in these experiments) were used to calculate the levels of intracellular HBV DNA forms, thereby eliminating technical variations inherent in the blot hybridization assays.
(§1) Toxicity analyses were performed in order to assess whether any observed antiviral effects were due to a general effect on cell viability. The method used was based on the uptake of neutral red dye, a standard and widely used assay for cell viability in a variety of virus-host systems, including HSV (herpes simplex virus) and HIV. The test compounds were used in the form of 40 mM stock solutions in DMSO (frozen on dry ice). Daily aliquots of the test samples were made and frozen at −20° C. so that each individual aliquot would be subjected to a single freeze-thaw cycle. The daily test aliquots were thawed, suspended into culture medium at room temperature and immediately added to the cell cultures. The compounds were tested at 0.01 to 10 μM for antiviral activity. The compounds were tested for toxicity at concentrations from 1 to 300 μM.

Data set [2] can be described thus: Toxicity analysis by uptake of neutral red dye in 2.2.15 cell cultures. The note with it: human, Cytotoxity IC50 ± SD, Table 1; neutral red dye uptake; 2.2.15 cells. The procedure: as §1
(§2) Toxicity analyses were performed in 96-well flat bottomed tissue culture plates. Cells for the toxicity analyses were cultured and treated with test compounds with the same schedule as used for the antiviral evaluations. Each compound was tested at 4 concentrations, each in triplicate cultures. Uptake of neutral red dye was used to determine the relative level of toxicity. The absorbance of internalized dye at […] (A510) was used for the quantitative analysis. Values are presented as a percentage of the average A510 values (± standard deviations) in 9 separate cultures of untreated cells maintained on the same 96-well plate as the test compounds.

Data set [3] has as its system 2.2.15 cells (HepG2 cells transformed with hepatitis virion). The description is as above. The note with it: read-out: Cytotoxity IC50 ± SD; Table 1; neutral red dye uptake; 2.2.15 cells. How it is done: as §1, §2
Data set [4] shares this test system. The note with it: typically observed, Korba and Gerin 1992; read-out: Concentration giving a 2-fold reduction in dye uptake; cited from earlier work.
Data set [5] concerns Hepatitis B virus. The note with it: previous studies, Korba and Gerin 1992; cited from earlier work.

On to `Nc1ccn([C@H]2CC[C@@H](CO)O2)c(=O)n1` [β-D-DDC, β-D-2′,3′-dideoxycytidine, reference compound], for which the “Inhibition of HBV replication (depression of HBV virion DNA and HBV RI), in words” value in data set [1] (2.2.15 cells) is “significant depressions of HBV DNA replication”. The EC90 in data set [1] (Hepatitis B virus, HepG2 2.2.15, read-out: HBV RI EC90 ± SD, Table 1) came out at 11 ± 2 µM; in data set [1] (read-out: HBV RI EC90 ± SD, Table 1), 12 ± 2.4 µM. Also, the EC50 was determined as 1.5 ± 0.7 µM in data set [1] (Hepatitis B virus, HepG2 2.2.15, read-out: HBV viron EC50 ± SD, Table 1) and 1.3 µM in data set [1] (read-out: HBV viron EC50 ± SD, Table 1). The “Selectivity Index IC50/EC90 RI” value in data set [1] (Table 1, cytotoxicity IC50 / RI EC90) is 20 and 18. The figures for the IC50 in data set [2], in data set [3] and in data set [4] were 216 ± 22 µM, 219 µM and 150 to 190 µM, respectively. In data set [5], the “Concentration giving a 90% depression of HBV RI” value was 9 to 12 µM.

(Values after patent publication US7468357B2, “Nucleosides with anti-hepatitis B virus activity” (Emory University, priority 1994, dated 2008).)
